Experimental data taken from the supplement of paper PMC10307832.

Experiments:
Experiment in all cases: relative viability (nuclei count vs DMSO), 5 days (fraction); higher = more cells survive
VE-821 + Phenformin = compound: CS(=O)(=O)c1ccc(-c2cnc(N)c(C(=O)Nc3ccccc3)n2)cc1 [VE-821] + N=C(N)NC(=N)NCCc1ccccc1 [Phenformin] (partner 250 µM)
How it was run: (§1)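 Relative viability is defined as nuclei in treated wells over nuclei in vehicle wells. Duplicate plates were run and medians reported. Lung cancer cell lines in 1536-well plates were dosed by pin tool one day after seeding, with one drug or with a fixed anchor-drug dose plus five library-drug doses (not always all listed) in √10 steps, and nuclei were counted after 5 days.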

Vismodegib + Crizotinib = compound: CS(=O)(=O)c1ccc(C(=O)Nc2ccc(Cl)c(-c3ccccn3)c2)c(Cl)c1 [Vismodegib] + C[C@@H](Oc1cc(-c2cnn(C3CCNCC3)c2)cnc1N)c1c(Cl)ccc(F)c1Cl [Crizotinib] (partner 1 µM)
How it was run: as §1

Ruxolitinib + Tozasertib = compound: N#CC[C@H](C1CCCC1)n1cc(-c2ncnc3[nH]ccc23)cn1 [Ruxolitinib] + Cc1cc(Nc2cc(N3CCN(C)CC3)nc(Sc3ccc(NC(=O)C4CC4)cc3)n2)n[nH]1 [Tozasertib] (partner 0.1 µM)
How it was run: as §1

Vismodegib + Phenformin = compound: CS(=O)(=O)c1ccc(C(=O)Nc2ccc(Cl)c(-c3ccccn3)c2)c(Cl)c1 [Vismodegib] + N=C(N)NC(=N)NCCc1ccccc1 [Phenformin] (partner 250 µM)
How it was run: as §1

Cell Line | relative viability (VE-821 + Phenformin; first compound 0.08 µM) | relative viability (VE-821 + Phenformin; first compound 0.253 µM) | relative viability (VE-821 + Phenformin; first compound 0.8 µM) | relative viability (VE-821 + Phenformin; first compound 2.53 µM) | relative viability (VE-821 + Phenformin; first compound 8 µM) | relative viability (Vismodegib + Crizotinib; first compound 0.08 µM) | relative viability (Vismodegib + Crizotinib; first compound 0.253 µM) | relative viability (Vismodegib + Crizotinib; first compound 0.8 µM) | relative viability (Vismodegib + Crizotinib; first compound 2.53 µM) | relative viability (Vismodegib + Crizotinib; first compound 8 µM) | relative viability (Ruxolitinib + Tozasertib; first compound 0.08 µM) | relative viability (Ruxolitinib + Tozasertib; first compound 0.253 µM) | relative viability (Ruxolitinib + Tozasertib; first compound 0.8 µM) | relative viability (Ruxolitinib + Tozasertib; first compound 2.53 µM) | relative viability (Ruxolitinib + Tozasertib; first compound 8 µM) | relative viability (Vismodegib + Phenformin; first compound 0.08 µM) | relative viability (Vismodegib + Phenformin; first compound 0.253 µM) | relative viability (Vismodegib + Phenformin; first compound 0.8 µM) | relative viability (Vismodegib + Phenformin; first compound 2.53 µM) | relative viability (Vismodegib + Phenformin; first compound 8 µM)
NCI-H647 | 0.556 | 0.532 | 0.454 | 0.533 | 0.211 | 1.07 | 1.13 | 1.11 | 0.969 | 1.07 | 0.297 | 0.237 | 0.224 | 0.378 | 0.297 | 0.439 | 0.491 | 0.509 | 0.507 | 0.433
LXF-289 | 0.541 | 0.53 | 0.532 | 0.527 | 0.562 | 0.806 | 0.772 | 0.816 | 0.745 | 0.781 | 0.215 | 0.165 | 0.233 | 0.134 | 0.187 | 0.524 | 0.495 | 0.508 | 0.517 | 0.467
PC-3 [JPC-3] | 0.455 | 0.504 | 0.448 | 0.469 | 0.451 | 0.93 | 0.991 | 0.964 | 0.93 | 0.956 | 0.77 | 0.894 | 0.862 | 0.824 | 0.859 | 0.483 | 0.48 | 0.457 | 0.483 | 0.483
NCI-H2009 | 0.507 | 0.471 | 0.498 | 0.461 | 0.36 | 0.94 | 1.05 | 1.13 | 1.01 | 1.12 | 0.781 | 0.754 | 0.853 | 0.717 | 0.578 | 0.467 | 0.474 | 0.478 | 0.45 | 0.467
LK-2 | 0.639 | 0.366 | 0.459 | 0.925 | 0.374 | 0.247 | 0.248 | 0.215 | 0.203 | 0.239 | 0.162 | 0.199 | 0.168 | 0.166 | 0.171 | 0.617 | 0.619 | 0.431 | 0.366 | 0.373
NCI-H1993 | 0.457 | 0.439 | 0.527 | 0.482 | 0.524 | 0.995 | 0.958 | 0.768 | 0.851 | 0.906 | 0.585 | 0.618 | 0.643 | 0.631 | 0.551 | 0.448 | 0.531 | 0.519 | 0.514 | 0.498
HCC-15 | 0.625 | 0.473 | 0.506 | 0.526 | 0.438 | 0.782 | 0.859 | 0.889 | 0.879 | 0.83 | 0.406 | 0.434 | 0.519 | 0.481 | 0.421 | 0.511 | 0.458 | 0.472 | 0.496 | 0.441
NCI-H322M | 0.504 | 0.766 | 0.741 | 0.577 | 0.364 | 0.858 | 0.869 | 0.849 | 0.879 | 1.08 | 0.451 | 0.503 | 0.457 | 0.458 | 0.482 | 0.798 | 0.771 | 0.783 | 0.729 | 0.756
